For test [1], the target named is T1, Tyrosine-protein kinase receptor TYRO3 (Homo sapiens) (UniProt Q06418).
T1 sequence (whole entry): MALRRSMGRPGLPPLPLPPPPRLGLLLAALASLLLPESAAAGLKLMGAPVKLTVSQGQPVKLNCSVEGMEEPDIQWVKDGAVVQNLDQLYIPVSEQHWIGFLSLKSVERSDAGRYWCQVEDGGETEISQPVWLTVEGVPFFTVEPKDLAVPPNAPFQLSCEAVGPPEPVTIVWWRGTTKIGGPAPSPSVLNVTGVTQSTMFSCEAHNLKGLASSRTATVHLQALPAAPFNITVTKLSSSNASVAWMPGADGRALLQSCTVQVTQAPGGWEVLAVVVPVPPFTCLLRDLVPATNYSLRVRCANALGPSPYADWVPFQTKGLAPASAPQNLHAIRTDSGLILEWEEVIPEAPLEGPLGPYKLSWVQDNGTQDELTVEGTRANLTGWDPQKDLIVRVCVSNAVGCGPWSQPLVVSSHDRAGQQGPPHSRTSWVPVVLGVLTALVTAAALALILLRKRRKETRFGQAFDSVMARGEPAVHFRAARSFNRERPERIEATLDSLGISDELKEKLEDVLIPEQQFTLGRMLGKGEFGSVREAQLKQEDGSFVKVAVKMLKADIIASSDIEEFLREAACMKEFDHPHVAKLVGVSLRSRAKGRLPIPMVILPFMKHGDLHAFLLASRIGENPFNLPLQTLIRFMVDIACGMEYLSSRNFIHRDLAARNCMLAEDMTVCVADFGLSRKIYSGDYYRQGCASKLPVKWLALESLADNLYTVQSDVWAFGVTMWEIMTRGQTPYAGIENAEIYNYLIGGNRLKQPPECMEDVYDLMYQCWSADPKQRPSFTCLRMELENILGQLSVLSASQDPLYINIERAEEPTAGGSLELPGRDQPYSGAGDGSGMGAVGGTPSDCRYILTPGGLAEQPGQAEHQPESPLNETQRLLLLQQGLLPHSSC
The test can be described thus: Selectivity interaction (Kinase panel (Z-LYTE Assay)) EUB0001632a TYRO3. The settings on record: at 10 µM.

The target of test [2] is T2, Dual specificity tyrosine-phosphorylation-regulated kinase 4 (Homo sapiens) (UniProt Q9NR20).
T2 sequence (whole entry): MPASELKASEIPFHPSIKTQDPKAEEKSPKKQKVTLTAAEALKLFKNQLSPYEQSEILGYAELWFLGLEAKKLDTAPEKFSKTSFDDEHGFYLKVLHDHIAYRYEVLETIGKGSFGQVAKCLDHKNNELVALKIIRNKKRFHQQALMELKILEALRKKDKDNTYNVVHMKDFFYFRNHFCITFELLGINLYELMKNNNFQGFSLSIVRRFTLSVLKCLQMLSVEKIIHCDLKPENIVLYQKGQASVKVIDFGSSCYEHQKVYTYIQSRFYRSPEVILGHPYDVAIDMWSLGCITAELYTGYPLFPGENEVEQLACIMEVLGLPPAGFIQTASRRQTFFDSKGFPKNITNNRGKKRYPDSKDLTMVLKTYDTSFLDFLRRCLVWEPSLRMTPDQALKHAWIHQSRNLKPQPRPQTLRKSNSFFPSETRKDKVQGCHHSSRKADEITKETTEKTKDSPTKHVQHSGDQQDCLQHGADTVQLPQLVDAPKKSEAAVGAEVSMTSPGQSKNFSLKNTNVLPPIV
Kind of test: Selectivity interaction (Kinase panel (Z-LYTE Assay)) EUB0001632a DYRK4. The note with it: at 10 µM.

Test [3] deals with Cyclin-dependent kinase 14 (Homo sapiens) (UniProt O94921). The test can be described thus: Selectivity interaction (KinomeScan (DiscoverX)) EUB0000666a CDK14. The note with it: at 10 µM.
The target of test [4] is T3, Muscarinic acetylcholine receptor M1 (Homo sapiens) (UniProt P11229).
T3 sequence (whole entry): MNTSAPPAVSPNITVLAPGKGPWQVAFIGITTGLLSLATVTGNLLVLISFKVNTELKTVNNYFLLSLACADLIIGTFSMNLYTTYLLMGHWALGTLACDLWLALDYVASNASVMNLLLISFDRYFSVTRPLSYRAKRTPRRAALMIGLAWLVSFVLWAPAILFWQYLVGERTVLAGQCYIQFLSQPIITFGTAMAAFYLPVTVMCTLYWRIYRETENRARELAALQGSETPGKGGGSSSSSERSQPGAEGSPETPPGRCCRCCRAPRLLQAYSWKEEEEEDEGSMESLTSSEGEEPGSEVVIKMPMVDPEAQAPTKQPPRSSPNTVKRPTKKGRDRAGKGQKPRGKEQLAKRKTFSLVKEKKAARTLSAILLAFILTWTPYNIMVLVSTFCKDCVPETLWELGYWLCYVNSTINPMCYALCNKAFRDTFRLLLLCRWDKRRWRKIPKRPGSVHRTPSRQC
Kind of test: Selectivity interaction (GPCR panel (PDSP screen)) EUB0001079a CHRM1. The settings on record: at 10 µM.

In test [5] the target is Proto-oncogene tyrosine-protein kinase receptor Ret (Homo sapiens, UniProt P07949). The test can be described thus: Selectivity interaction (Kinase panel (Invitrogen)) EUB0000639a RET. The settings on record: at 200 nM.
Test [6] concerns the target Serine/threonine-protein kinase tousled-like 2 (Homo sapiens) (UniProt Q86UE8). Kind of test: Selectivity interaction (KinomeScan (DiscoverX)) EUB0001049a TLK2. The settings on record: at 1 µM.
Test [7] has as its target Calcium/calmodulin-dependent protein kinase kinase 2 (Homo sapiens) (UniProt Q96RR4). The test can be described thus: Selectivity interaction (KinomeScan (DiscoverX)) EUB0000618a CAMKK2. The settings on record: at 10 µM.

Chain of Cyclin-dependent kinase 14 (Homo sapiens) (O94921 whole entry): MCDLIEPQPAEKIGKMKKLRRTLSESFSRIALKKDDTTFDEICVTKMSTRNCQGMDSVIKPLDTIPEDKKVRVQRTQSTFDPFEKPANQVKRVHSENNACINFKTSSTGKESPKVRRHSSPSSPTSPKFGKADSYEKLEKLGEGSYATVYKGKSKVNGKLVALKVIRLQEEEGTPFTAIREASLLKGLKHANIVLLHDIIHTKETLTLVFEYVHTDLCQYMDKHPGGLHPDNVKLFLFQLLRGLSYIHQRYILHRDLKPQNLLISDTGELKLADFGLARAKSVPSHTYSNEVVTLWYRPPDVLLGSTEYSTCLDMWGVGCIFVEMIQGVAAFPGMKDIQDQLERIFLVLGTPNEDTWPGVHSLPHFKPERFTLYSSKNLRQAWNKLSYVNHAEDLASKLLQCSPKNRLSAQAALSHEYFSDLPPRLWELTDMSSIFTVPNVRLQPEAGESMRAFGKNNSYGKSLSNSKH
Chain of Serine/threonine-protein kinase tousled-like 2 (Homo sapiens) (Q86UE8 whole entry, looked up): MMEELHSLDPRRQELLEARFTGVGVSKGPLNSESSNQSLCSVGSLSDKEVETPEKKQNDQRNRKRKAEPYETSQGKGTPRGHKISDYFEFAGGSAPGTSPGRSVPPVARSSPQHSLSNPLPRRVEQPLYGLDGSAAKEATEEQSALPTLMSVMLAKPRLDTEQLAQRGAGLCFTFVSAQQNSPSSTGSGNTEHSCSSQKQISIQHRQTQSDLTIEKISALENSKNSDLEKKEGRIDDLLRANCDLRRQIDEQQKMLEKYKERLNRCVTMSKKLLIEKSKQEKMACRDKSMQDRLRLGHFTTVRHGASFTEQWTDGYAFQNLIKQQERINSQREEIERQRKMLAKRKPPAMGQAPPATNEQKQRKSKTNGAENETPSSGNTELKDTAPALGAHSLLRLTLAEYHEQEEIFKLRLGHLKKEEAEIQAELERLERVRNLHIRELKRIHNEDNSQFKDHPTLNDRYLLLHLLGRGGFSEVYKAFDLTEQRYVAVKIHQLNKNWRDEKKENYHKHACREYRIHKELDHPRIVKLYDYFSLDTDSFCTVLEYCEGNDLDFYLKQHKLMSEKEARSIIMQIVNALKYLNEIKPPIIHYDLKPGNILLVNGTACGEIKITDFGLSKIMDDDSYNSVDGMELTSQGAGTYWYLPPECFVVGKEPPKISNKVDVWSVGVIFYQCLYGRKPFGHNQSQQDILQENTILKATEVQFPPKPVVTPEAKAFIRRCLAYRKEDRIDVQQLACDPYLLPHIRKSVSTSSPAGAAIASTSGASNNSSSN
Chain of Proto-oncogene tyrosine-protein kinase receptor Ret (P07949 whole entry): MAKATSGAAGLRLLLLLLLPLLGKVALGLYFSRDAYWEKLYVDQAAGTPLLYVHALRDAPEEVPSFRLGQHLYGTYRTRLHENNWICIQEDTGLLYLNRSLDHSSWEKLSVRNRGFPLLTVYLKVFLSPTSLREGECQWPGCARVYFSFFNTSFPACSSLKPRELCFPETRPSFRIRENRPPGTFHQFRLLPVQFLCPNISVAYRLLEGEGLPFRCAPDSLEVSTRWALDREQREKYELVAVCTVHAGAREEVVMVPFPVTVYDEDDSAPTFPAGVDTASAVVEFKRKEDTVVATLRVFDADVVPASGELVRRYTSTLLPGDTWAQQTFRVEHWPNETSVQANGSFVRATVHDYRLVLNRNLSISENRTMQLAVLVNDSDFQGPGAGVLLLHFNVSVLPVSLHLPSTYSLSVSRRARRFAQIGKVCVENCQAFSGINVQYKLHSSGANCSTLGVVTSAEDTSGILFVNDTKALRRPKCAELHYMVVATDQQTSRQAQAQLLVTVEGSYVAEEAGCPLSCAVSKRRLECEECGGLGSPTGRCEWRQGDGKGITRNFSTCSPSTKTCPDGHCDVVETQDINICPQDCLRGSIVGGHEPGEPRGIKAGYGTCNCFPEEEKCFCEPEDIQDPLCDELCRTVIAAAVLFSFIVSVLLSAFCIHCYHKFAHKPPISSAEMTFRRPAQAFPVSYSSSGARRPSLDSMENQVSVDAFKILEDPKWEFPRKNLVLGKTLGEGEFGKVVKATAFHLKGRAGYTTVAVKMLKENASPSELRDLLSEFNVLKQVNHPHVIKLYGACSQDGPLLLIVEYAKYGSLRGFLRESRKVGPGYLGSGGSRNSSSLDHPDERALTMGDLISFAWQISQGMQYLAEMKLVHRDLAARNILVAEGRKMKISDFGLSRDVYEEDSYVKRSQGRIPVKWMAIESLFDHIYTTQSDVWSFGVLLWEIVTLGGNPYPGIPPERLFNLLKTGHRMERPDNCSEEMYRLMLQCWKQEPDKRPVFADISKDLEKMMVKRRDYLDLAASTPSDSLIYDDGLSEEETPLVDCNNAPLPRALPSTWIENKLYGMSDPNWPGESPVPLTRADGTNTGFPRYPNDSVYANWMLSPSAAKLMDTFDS
Chain of Calcium/calmodulin-dependent protein kinase kinase 2 (Homo sapiens) (Q96RR4 2-588 limits assumed): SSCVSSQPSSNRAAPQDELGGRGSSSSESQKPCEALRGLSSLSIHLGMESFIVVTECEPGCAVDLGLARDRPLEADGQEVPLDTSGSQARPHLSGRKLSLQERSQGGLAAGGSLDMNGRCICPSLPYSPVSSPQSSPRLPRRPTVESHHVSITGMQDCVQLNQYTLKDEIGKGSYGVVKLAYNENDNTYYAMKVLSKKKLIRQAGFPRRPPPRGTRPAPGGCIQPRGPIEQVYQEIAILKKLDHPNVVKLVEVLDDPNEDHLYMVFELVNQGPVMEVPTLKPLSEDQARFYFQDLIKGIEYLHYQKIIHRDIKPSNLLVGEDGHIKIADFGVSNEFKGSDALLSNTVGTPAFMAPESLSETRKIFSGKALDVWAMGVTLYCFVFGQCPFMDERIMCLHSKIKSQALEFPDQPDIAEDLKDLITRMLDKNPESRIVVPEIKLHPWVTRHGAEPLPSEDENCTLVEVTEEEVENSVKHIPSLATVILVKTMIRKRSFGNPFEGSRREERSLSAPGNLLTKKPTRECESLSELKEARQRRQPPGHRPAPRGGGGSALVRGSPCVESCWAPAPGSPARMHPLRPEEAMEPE

Turning to `Cn1cc(-n2cnc3c(NCc4nc5cc(Cl)c(Cl)cc5[nH]4)nc(N4CCOCC4)nc32)cn1`, the % of control in test [1] was -1.87%; in test [2], 0.0605%. On to `O=C(NOC[C@H](O)CO)c1ccc(F)c(F)c1Nc1ccc(I)cc1F`, for which, in test [3], the % of control came to 100%.

For the compound `Nc1cnc(N2CCc3cc(S(=O)(=O)Nc4c(F)cc(Cl)cc4F)cc(N4CCCC4=O)c32)nc1` [TP-020n], the % of inhibition in test [4] was -9.48%.

With `CC[C@@H]1[C@H](F)C(=O)N[C@@H]1COc1nccc2cc(C(N)=O)c(OC)cc12` [ZIMLOVISERTIB], the % of inhibition in test [5] turned out to be 58.6%. Turning to `COc1cc(Nc2nc(C)cc(-c3cnn4nc(OC)ccc34)n2)cc(C(F)(F)F)c1`, the % of control in test [6] was determined as 98%. `O[C@H]1CC[C@H](Nc2ncc3nc(Nc4c(F)cc(F)cc4F)n([C@H]4CCOC4)c3n2)CC1`: the % of control in test [7] is 94%.

(Values after ChEMBL document CHEMBL5465560, “Selectivity Literature for EUbOPEN Chemogenomic Library” (2024).)
